Measurements taken from article PMC8315922, “In Vitro Identification and In Vivo Confirmation of Inhibitors for Sweet Potato Chlorotic Stunt Virus RNA Silencing Suppressor, a Viral RNase III” (Journal of Virology, 2021).

Columns and labels:
SPCSV [1] = assay: Virus accumulation (RT-qPCR of coat protein RNA) in coinfected sweetpotato plants grown in culture medium: SPCSV; assay type: in vivo, Sweet potato chlorotic stunt virus; details: for SPCSV_FC (fold change of viral accumulation): 50 μM in culture medium, 28 days, relative to DMSO control; for SPCSV accumulation reduced / viral titer SPCSV (log2 fold change relative to controls): plants in culture medium, 50 μM
Description: (§1) Since tests in culture medium consume smaller amounts of compounds and can be carried out under relatively controlled conditions, sweetpotato plants coinfected with SPCSV and SPFMV were grown in medium supplemented with one of the 30 inhibitor candidates at a concentration of 50 μM. Their effects on plant growth were monitored by imaging the plants once a week. […] In addition, virus accumulation was quantified by measuring the relative abundance of the transcripts encoding viral coat proteins using RT-qPCR ([32]). The effect of individual compounds on virus accumulation was estimated by comparing treated and control plants.
(§2) Sweetpotato plants cultivar 'Huachano' (accession CIP420065) were side-graft inoculated with both SPFMV (East African strain isolate Nam1) and SPCSV-Ug (East African serotype 2) as described previously ([62]). Plantlets were propagated by taking single-node stems grown in a plant culture medium ([33]). Next, plantlets with newly formed roots were transferred to glass tubes (18 by 150 mm) containing 10 ml of medium supplemented with either 50 μM compound (diluted in DMSO; final DMSO concentration, 0.1%) or only 0.1% DMSO as a control. For plant experiments in soil, plantlets were transferred to pots (6 by 6 by 10 cm) filled with a mixture of sand, humus, and washed soil. After 1 week, plants were treated by foliar spraying using either individual compounds at a single concentration (10 μM) (treatment) or water (control/mock) twice a week for 1 month. All plants were grown at 22°C with 60% humidity and a 16-h light/8-h dark photoperiod for 28 days in culture medium and for 41 days in soil. The Finnish National Plant Phenotyping Infrastructure (NaPPI) was used to monitor plant viral disease symptoms as described in our previous study ([33]). Four compounds were tested with the phenotyping platform in two independent batches, each of which included five biological replicates.
(§3) Leaf samples were collected from plants grown in culture medium or soil for 28 or 41 days, respectively, and frozen in liquid nitrogen. Total RNA was extracted using the Spectrum plant total RNA kit (Sigma-Aldrich). First-strand cDNA was synthesized using the Transcriptor first-strand cDNA synthesis kit (Roche, Basel, Switzerland). […] All RT-qPCR experiments were conducted in triplicate on three and five biological replicates from plants grown in culture medium and soil, respectively. The primer list can be found in our previous study ([33]).
(§4) For HTS, the activity of CSR3 was calculated by measuring the change in fluorescence as a function of the reaction time using MARS Data Analysis software (BMG Labtech). To evaluate the CSR3 inhibition efficiency of individual compounds, the PI of each compound was calculated using the slope values for the sample, positive control, and negative control according to the following equation: PI = 100 × [1 − (sample − positive)/(negative − positive)]%. IC50 and DSS values were calculated using concentration-specific PI values according to a previous study ([31]). Relative gene expression was calculated using the classical 2^−ΔΔ^CT method ([63]).

SPFMV [2] = assay: Virus accumulation (RT-qPCR of coat protein RNA) in coinfected sweetpotato plants grown in culture medium: SPFMV; assay type: in vivo, Sweet potato feathery mottle virus; details: for SPFMV_FC (fold change of viral accumulation): 50 μM in culture medium, 28 days, relative to DMSO control; for SPFMV accumulation reduced / viral titer SPFMV (log2 fold change relative to controls): plants in culture medium, 50 μM
Description: as §1, §2, §3, §4

[3] = biological target: CSR3 (RNase III of SPCSV) (Sweet potato chlorotic stunt virus, UniProt Q8JJW8); assay: Kinetic-based HTS (FRET, labeled 22-bp siRNA cleavage), one concentration; assay type: biochemical; details: compound 10 μM, 375 nM siRNA, 37°C
Sequence of CSR3 (RNase III of SPCSV) (Q8JJW8 entry or part of it): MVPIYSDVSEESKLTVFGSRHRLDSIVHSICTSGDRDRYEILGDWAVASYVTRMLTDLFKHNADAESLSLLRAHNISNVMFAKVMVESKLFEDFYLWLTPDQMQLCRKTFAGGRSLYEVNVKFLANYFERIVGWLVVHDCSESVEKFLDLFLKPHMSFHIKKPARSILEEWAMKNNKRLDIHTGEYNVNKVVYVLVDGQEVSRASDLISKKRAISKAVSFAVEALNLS
Description: Based on the catalytic activity of CSR3 on 22-bp siRNA, our kinetic-based HTS assay was designed using distance-dependent FRET technology. Specifically, one strand of siRNA, as a substrate, was labeled with a fluorescent dye (6-carboxyfluorescein [FAM]) at the 5′ end and a quencher (black hole quencher 1 [BHQ1]) at the 3′ end. The initial reaction rate of CSR3 was quantified using the slope of raw fluorescence under an excitation/emission spectrum at 485/520 nm (Fig. 3A). […] In this study, a total of 6,622 compounds (including 6,400 selected from Glide docking and 222 empirically selected compounds for preliminary assay setup) were screened using kinetic-based HTS at a final concentration of 10 μM. All 384-well screening plates contained 32 negative (with CSR3 [i.e., the substrate was successfully cleaved]) and 32 positive (without CSR3 [i.e., the substrate remained intact]) control reaction mixtures. To evaluate the quality of the HTS assay, the Z-factor (Z′) parameter was calculated using the reaction rates of the positive and negative controls ([30]). […]
The HTS assay was designed based on FRET using a 22-bp siRNA (forward sequence, […]; reverse sequence, […]) with a 2-nucleotide (nt) 3′ overhang labeled with the fluorescent dye 6-carboxyfluorescein (FAM) and a black hole quencher (BHQ1) on the sense strand (Metabion, Munich, Germany). […] The plates were read with a PHERAstar FS reader (BMG Labtech, Ortenberg, Germany).
as §4

sweetpotato plants = details: 50 μM in culture medium
[4] = tested on: human enzymes or bacterial proteins; set-up: method as in earlier work; details: ref PubChem https://pubchem.ncbi.nlm.nih.gov/compound/7114450#section=Biological-Test-Results; cited from earlier work
SPFMV [5] = details: plants in soil, 10 μM foliar spray twice a week for 1 month, vs water-treated
Description: (§5) Compounds were administered by regular foliar spray over 1 month.
as §2
(§6) Leaf samples were collected from plants grown in culture medium or soil for 28 or 41 days, respectively, and frozen in liquid nitrogen. Total RNA was extracted using the Spectrum plant total RNA kit (Sigma-Aldrich). First-strand cDNA was synthesized using the Transcriptor first-strand cDNA synthesis kit (Roche, Basel, Switzerland). Gene expression was measured in a final volume of 10 μl (containing 2 μl 10-fold-diluted cDNA, 5 μl SYBR green I master mix [Roche], and 2.5 μM primers) using the LightCycler 480 instrument II (Roche). All RT-qPCR experiments were conducted in triplicate on three and five biological replicates from plants grown in culture medium and soil, respectively. The primer list can be found in our previous study ([33]).
as §4

SPCSV [6] = details: plants in soil, 10 μM foliar spray twice a week for 1 month, vs water-treated
Description: as §5, §2, §6, §4

| SMILES | SPCSV_FC (fold change of viral accumulation) (SPCSV [1]) | SPFMV_FC (fold change of viral accumulation) (SPFMV [2]) | PI values (percentage of inhibition) [3] | Toxicity (sweetpotato plants) | SPCSV accumulation reduced (SPCSV [1]) | viral titer SPCSV (log2 fold change relative to controls) (SPCSV [1]) | activity in inhibitor screens for human enzymes or bacterial proteins [4] | SPFMV accumulation reduced (SPFMV [2]) | viral titer SPFMV (log2 fold change relative to controls) (SPFMV [2]) | log2 fold change in coat protein expression of SPFMV (SPFMV [5]) | log2 fold change in coat protein expression of SPCSV (SPCSV [6]) |
| --- | --- | --- | --- | --- | --- | --- | --- | --- | --- | --- | --- |
| O=C1c2c(O)ccc(O)c2C(=O)c2c(NCCNCCO)ccc(NCCNCCO)c21 [FIMM000490] | 0.2453 | 1.747 | 102.062% | no | – | – | – | – | – | – | – |
| O=C(O)c1ccc(C2Nc3c(Br)cccc3C3C=CCC32)cc1 (stereo not drawn) [FIMM022230] | 0.08458 | 0.2613 | – | no | approximately 8 fold | −3.56 | inactive | ~4 fold | −1.93 | −0.73 | −0.58 |
| Cc1ccc(C2Nc3ccc(C(=O)O)cc3C3C=CCC32)cc1 (stereo not drawn) [FIMM031755] | 0.5163 | 0.5653 | – | no | ~2 fold | −0.95 | affected the activity of chain B of the human cytokine/receptor binary complex | ~2 fold | −0.82 | −1.33 | −1.30 |
| COc1cc(C=C2C(=O)NC(=S)NC2=O)ccc1OCc1ccccc1[N+](=O)[O-] [FIMM101864] | 0.5034 | 1.376 | 98.4382% | – | – | – | – | – | – | – | – |
